# Source: patent publication US20190151283A1, “NON-STEROIDAL SELECTIVE GLUCOCORTICOID RECEPTOR AGONISTIC MODULATORS (SEGRAMs) AND USES THEREOF” (ASSOCIATION POUR LA RECHERCHE À L'IGBMC (ARI), priority 2017, published 2019)
# Tests used:
# Assay type in all cases: in vivo, mouse
# mice = test: House dust mite (HDM)-induced asthma-like allergic lung inflammation; details: for number of neutrophils and macrophages in BAL: 0.5 mg/kg on D29-D31, BAL on D32; for total number of BAL cells, eosinophils and lymphocytes: 0.5 mg/kg on D29-D31, BAL on D32, vs control group; for eosinophils in lung, immunohistochemistry: eosinophil-specific antibodies; for eosinophils in lung, immunohistochemistry / neutrophils in lung, immunohistochemistry / expressions of IL-10 and TNFα in lung samples: data not shown; for peribronchiolar and perivascular inflammatory cell infiltration: histology of lung paraffin sections; for neutrophils in lung, immunohistochemistry: neutrophil-specific antibody; for expressions of IL-1β, IL-6, IL-4, IL-5, IL-13, Eotaxin and CCL4 (pro-inflammatory genes) in lung samples / expressions of IL-10 and TNFα in lung samples: q-RT-PCR; for expressions of IL-1β, IL-6, IL-4, IL-5, IL-13, Eotaxin and CCL4 (pro-inflammatory genes) in lung samples / HDM-induced airway hyperresponsiveness (AHR), airway resistance and elastance: D32; for HDM-induced airway hyperresponsiveness (AHR), airway resistance and elastance: response to methacholine 50 mg/mL
# Experimental: Glucocorticoids have been (Pearlman et al., 1997. Ann Allergy Asthma Immunol. 78(4):356-62), and are still, widely used in asthma therapy. In order to investigate the possible CpdX anti-inflammatory activity in vivo, mice were sensitized and challenged with either ovalbumin (OVA) or house dust mite (HDM) to induce an asthma-like allergic lung inflammation.
# Mice were intranasally sensitized with 1 μg HDM from DO to D4, and further intranasally sensitized with 10 μg HDM on D14 and D21. Mice were then subdivided into eight groups, and on D29, D30 and D31, each mouse was again intranasally challenged with 1 μg HDM. The first seven groups received respectively 0.5 mg/kg of body weight of Dex, CpdX, CpdX(eA), CpdX(eB), CpdX-D3, CpdX-D3(eA) or CpdX-D3(eB), while the eighth group served as a control.
# On D32, the airway responsiveness was invasively determined using a computer-controlled small animal ventilator (FlexVent® system, SCIREQ Technologies). Mice were anesthetized with xylazine (15 mg/kg, i.p.), followed 15 minutes later by an i.p. injection of pentobarbital sodium (54 mg/kg). An 18-gauge metal needle was then inserted into the trachea, each mouse was connected to the FlexVent® ventilator and quasi-sinusoidally ventilated with a tidal volume of 10 mL/kg at a frequency of 150 breaths/minute and a positive end-expiratory pressure of 2 cm H2O, in order to achieve a mean lung volume close to spontaneous breathing. After baseline measurement, mice were challenged for 10 seconds with a saline aerosol and, at 4.5-minute intervals, with 50 mg/mL methacholine. Airway resistance and elastance were expressed as cmH20·s/mL and cmH2O/mL respectively.
# The lung allergic inflammation was assessed by examination of the bronchoalveolar lavage (BAL) fluid from each of these HDM-challenged mice. The total BAL cells, eosinophils, neutrophils, macrophages and lymphocytes were counted. RNA transcripts were extracted from lung samples. RNA transcripts of IL-1β, IL-6, IL-4, IL-5, IL-13, Eotaxin, CCL4, IL-10 and TNFα were analyzed by q-RT-PCR. Lung tissues were harvested and histological (with H&E staining) and immunohistochemical analyses were also carried out (with eosinophil-specific and neutrophil-specific antibodies).
# Male mice (DBA-1 strain) = test: Collagen-induced arthritis (CIA); details: for hind paw thickness at the ankle level: i.p. 1 mg/kg daily for 10 days (T0 to T10); for RNA transcripts of the pro-inflammatory genes expressed in the hind paws (IL-1β, IL-6, IL-17a, IL-17f, TNFα): q-RT-PCR, T10, 'but not' = not repressed; for hind paw thickness, difference compared to the Dex treatment: student t test, FIG. 17 legend
# Experimental: Mice were treated with collagen to induce a Th17 rheumatoid arthritis-like inflammation as described by Inglis et al. (2007. Arthritis Res Ther. 9(5):R113) and Geboes et al. (2009. Arthritis Rheum. 60(2):390-5).
# Male mice (DBA-1 strain) were subcutaneously-injected with 100 μg collagen per mouse on D0. The hind paw thickness at the ankle level was regularly measured with a caliper. When the ankle thickness had reached around 4 mm (T0, i.e., 30 to 50 days after the collagen injection on D0), mice were daily intraperitoneally-injected for 10 days (T0 to T10) with either vehicle (NaCl 0.9%), Dex, CpdX, CpdX(eA), CpdX(eB), CpdX-D3, CpdX-D3(eA) or CpdX-D3(eB) (1 mg/kg body weight diluted in NaCl 0.9%), and the hind paw thickness at the ankle level was daily measured with a caliper. Pictures of the hind paws were taken at days T0 and T10 (before and after the treatment with either Vehicle, Dex, CpdX, CpdX(eA), CpdX(eB), CpdX-D3, CpdX-D3(eA) or CpdX-D3(eB)), in order to assess the course of swelling.
# RNA transcripts were extracted from whole hind paws of collagen-untreated and collagen-treated mice at T0 and T10. IL-1β, IL-6, IL-17a, IL-17f and TNFα transcripts were analyzed by q-RT-PCR.
# Balb/C mice = test: Ovalbumin (OVA)-induced allergic conjunctivitis; details: 0.1% instillation D22 to D24, 20 minutes after the last OVA challenge
# Experimental: To investigate the anti-inflammatory effect of CpdX or CpdX-D3 on an allergic conjunctivitis, Balb/C mice were intraperitoneally sensitized with 50 μg OVA with alum on both days D1 and D8, and then challenged from D15 to D21 with 250 μg OVA in 5 μL of sterilized vehicle (0.9% NaCl), which were directly instilled onto the conjunctival sac. From D22 to D24, mice were divided into several groups, and received instillations with either OVA alone, OVA together with 0.1% of either Dex, CpdX, CpdX(eA), CpdX(eB), CpdX-D3, CpdX-D3(eA) or CpdX-D3(eB).
# The clinical appearance of mouse eyes was evaluated 20 minutes after the last instillation on D24. Clinical signs (conjunctival hyperemia, lid edema and tearing) were scored to evaluate the occurrence and severity of conjunctivitis as described by Gimenes et al. (2015. Experimental Eye Research 134:24-32). Parameters were graded on a scale ranging from 0 to 3, (0=absence, 1=mild, 2=moderate, and 3=severe symptoms), each animal receiving a total clinical score ranging from 0 to 9. The data were expressed as mean±SEM with at least four mice per treatment.
# B6 male mice [1] = test: Organ weights (thymus, spleen, adrenal gland, kidney) after three-month treatment; details: s.c. 1 mg/kg daily, three months
# Experimental: B6 male mice (8-week-old) were daily subjected for three months to a subcutaneous injection of either vehicle (NaCl 0.9%), Dex, CpdX, CpdX(eA), CpdX(eB), CpdX-D3, CpdX-D3(eA) or CpdX-D3(eB) (1 mg/kg body weight, diluted in vehicle). Following these treatments, four organs (thymus, spleen, adrenal gland and kidney) were harvested and weighted.
# B6 male mice [2] = test: Fatty liver after three-month treatment; details: three months; for lipid deposition in the liver: 5% Red oil staining of frozen sections; for transcripts of fatty acid synthase (FASN) and Stearoyl-CoA desaturase 1 (SCD1) in liver: q-RT-PCR, 'but not' = no increase; for blood cholesterol and bile acids' levels: 'but not' = no clear increase
# Experimental: B6 male mice (8-week-old) were daily subjected for three months to a subcutaneous injection of either vehicle (NaCl 0.9%), Dex, CpdX, CpdX(eA), CpdX(eB), CpdX-D3, CpdX-D3(eA) or CpdX-D3(eB) (1 mg/kg body weight, diluted in vehicle). Following this treatment, blood was collected at 10 a.m. by retro-orbital puncture in lithium-heparin coated vials. The plasmatic levels of total cholesterol and bile acids were determined.
# Liver samples were harvested. […] RNA transcripts were extracted from liver samples and the transcripts of fatty acid synthase (FASN) and Stearoyl-CoA desaturase 1 (SCD1) genes were analyzed by q-RT-PCR.
Compound,spleen weight (B6 male mice [1]),weight of the adrenal gland (B6 male mice [1]),lipid deposition in the liver (B6 male mice [2]),transcripts of fatty acid synthase (FASN) and Stearoyl-CoA desaturase 1 (SCD1) in liver (B6 male mice [2]),blood cholesterol and bile acids' levels (B6 male mice [2]),number of neutrophils and macrophages in BAL (mice),"total number of BAL cells, eosinophils and lymphocytes (mice)","eosinophils in lung, immunohistochemistry (mice)",peribronchiolar and perivascular inflammatory cell infiltration (mice),"neutrophils in lung, immunohistochemistry (mice)","expressions of IL-1β, IL-6, IL-4, IL-5, IL-13, Eotaxin and CCL4 (pro-inflammatory genes) in lung samples (mice)",expressions of IL-10 and TNFα in lung samples (mice),"HDM-induced airway hyperresponsiveness (AHR), airway resistance and elastance (mice)",hind paw thickness at the ankle level (Male mice (DBA-1 strain)),"RNA transcripts of the pro-inflammatory genes expressed in the hind paws (IL-1β, IL-6, IL-17a, IL-17f, TNFα) (Male mice (DBA-1 strain))","hind paw thickness, difference compared to the Dex treatment (Male mice (DBA-1 strain))","clinical signs of allergic conjunctivitis (conjunctival hyperemia, lid edema and tearing) (Balb/C mice)",thymus apoptosis / thymus found (B6 male mice [1]),hind paw thickness at the ankle level (Male mice (DBA-1 strain); 1 mg/kg)
"COc1ccc(F)cc1C(C)(C)CC(O)(CNc1ccc2c(c1)COC2=O)C(F)(F)F (racemic) [CpdX, 5-[4-(5-fluoro-2-methoxyphenyl)-2-hydroxy-4-methyl-2-(trifluoromethyl)pentylamino]-isobenzofuran-1(3H)-one]",not decreased,increased,not observed,but not,but not,No significant change,significantly decreased,decreased,strongly decreased,no significant change,significantly and similarly decreased,not affected,similarly reduced,rapid decrease,similarly repressed,not significant,considerably reduced,did not result in any significant thymus apoptosis,
"COc1ccc(F)cc1C(C)(C)CC(O)(CNc1ccc2c(c1)COC2=O)C(F)(F)F (single isomer, unassigned) [CpdX(eA), 5-[4-(5-fluoro-2-methoxyphenyl)-2-hydroxy-4-methyl-2-(trifluoromethyl)pentylamino]-isobenzofuran-1(3H)-one]",not decreased,increased,,but not,but not,,efficiently decreased,,decreased,,efficiently decreased,,reduced,,similarly repressed,,considerably reduced,did not result in any significant thymus apoptosis,
"COc1ccc(F)cc1C(C)(C)CC(O)(CNc1ccc2c(c1)COC2=O)C(F)(F)F (single isomer, unassigned) [CpdX(eB), 5-[4-(5-fluoro-2-methoxyphenyl)-2-hydroxy-4-methyl-2-(trifluoromethyl)pentylamino]-isobenzofuran-1(3H)-one]",not decreased,increased,,but not,but not,,,,,,,,,,,,considerably reduced,did not result in any significant thymus apoptosis,no such decrease

# Now from value to compound, other results behind:
spleen weight (B6 male mice [1]),weight of the adrenal gland (B6 male mice [1]),lipid deposition in the liver (B6 male mice [2]),transcripts of fatty acid synthase (FASN) and Stearoyl-CoA desaturase 1 (SCD1) in liver (B6 male mice [2]),blood cholesterol and bile acids' levels (B6 male mice [2]),Compound,number of neutrophils and macrophages in BAL (mice),"total number of BAL cells, eosinophils and lymphocytes (mice)","eosinophils in lung, immunohistochemistry (mice)",peribronchiolar and perivascular inflammatory cell infiltration (mice),"neutrophils in lung, immunohistochemistry (mice)","expressions of IL-1β, IL-6, IL-4, IL-5, IL-13, Eotaxin and CCL4 (pro-inflammatory genes) in lung samples (mice)",expressions of IL-10 and TNFα in lung samples (mice),"HDM-induced airway hyperresponsiveness (AHR), airway resistance and elastance (mice)",hind paw thickness at the ankle level (Male mice (DBA-1 strain)),"RNA transcripts of the pro-inflammatory genes expressed in the hind paws (IL-1β, IL-6, IL-17a, IL-17f, TNFα) (Male mice (DBA-1 strain))","hind paw thickness, difference compared to the Dex treatment (Male mice (DBA-1 strain))","clinical signs of allergic conjunctivitis (conjunctival hyperemia, lid edema and tearing) (Balb/C mice)",thymus apoptosis / thymus found (B6 male mice [1]),hind paw thickness at the ankle level (Male mice (DBA-1 strain); 1 mg/kg)
not decreased,increased,not observed,but not,but not,"[2H]C([2H])([2H])Oc1ccc(F)cc1C(C)(C)CC(O)(CNc1ccc2c(c1)COC2=O)C(F)(F)F (racemic) [CpdX-D3, 5-{4-[2-(methoxy-D3)-5-fluorophenyl]-2-hydroxy-4-methyl-2-(trifluoro-methyl)pentylamino}isobenzofuran-1(3H)-one]",No significant change,significantly decreased,decreased,strongly decreased,no significant change,significantly and similarly decreased,not affected,similarly reduced,rapid decrease,similarly repressed,not significant,considerably reduced,did not result in any significant thymus apoptosis,
not decreased,increased,,but not,but not,"[2H]C([2H])([2H])Oc1ccc(F)cc1C(C)(C)CC(O)(CNc1ccc2c(c1)COC2=O)C(F)(F)F (stereo not shown) [CpdX-D3(eB), 5-{4-[2-(methoxy-D3)-5-fluorophenyl]-2-hydroxy-4-methyl-2-(trifluoromethyl)pentylamino}isobenzofuran-1(3H)-one]",,,,,,,,,,,,considerably reduced,did not result in any significant thymus apoptosis,no such decrease
